Where a name gives a salt, the structure may show the parent alone.
System: β-lactamase producing bacteria
Test: Test Example 1: MIC of meropenem (MEPM) combined with test compound at fixed 4 μg/mL, broth microdilution
Format: cell-based
Conditions: relative to MEPM alone
Method: Test Example 1: Evaluation of Minimum Inhibitory Concentration (MIC) of MEPM Against β-Lactamase Producing Bacteria
To evaluate the β-lactamase inhibitory activity of test compounds, the effect of combination of a test compound and a β-lactam agent against β-lactamase producing bacteria was evaluated. Meropenem (MEPM) was used as a β-lactam antimicrobial agent. The minimum inhibitory concentration (MIC) of MEPM against β-lactamase producing bacteria when a test compound was added at a fixed concentration (4 μg/mL) was measured by broth microdilution method (common ratio: 2). MIC of MEPM decreasing to less than 1/32 in combination with a test compound is indicated by A, decreasing from 1/32 to 1/16 is indicated by B, decreasing from ⅛ to ¼ is indicated by C, and decreasing to ½ or others are indicated by D. “-” represents untested cases.

SMILES	Decrease of MIC of MEPM in combination with a test compound, E. coli ATCC BAA-2340 (KPC)	Decrease of MIC of MEPM in combination with a test compound, K. pneumoniae ATCC BAA-2344 (KPC)	Decrease of MIC of MEPM in combination with a test compound, K. pneumoniae ATCC BAA-2524 (OXA-48)
CON=C(C(=O)N1CC(Oc2ccc3c(c2C(=O)O)OB(O)CC3)C1)c1csc(N)n1 [Example 5, 7-({1-[(2-amino-1,3-thiazol-4-yl)(methoxyimino)acetyl]azetidin-3-yl}oxy)-2-hydroxy-3,4-dihydro-2H-1,2-benzoxaborinine-8-carboxylic acid]	A (MIC of MEPM decreasing to less than 1/32 in combination with a test compound is indicated by A)	B (decreasing from 1/32 to 1/16 is indicated by B)	C (decreasing from ⅛ to ¼ is indicated by C)
O=C(O)c1c(OC2CN(C(=O)Cc3cnc[nH]3)C2)ccc2c1OB(O)CC2 [Example 2, 2-hydroxy-7-({1-[(1H-imidazol-5-yl)acetyl]azetidin-3-yl}oxy)-3,4-dihydro-2H-1,2-benzoxaborinine-8-carboxylic Acid Hydrochloride]	A (MIC of MEPM decreasing to less than 1/32 in combination with a test compound is indicated by A)	A (MIC of MEPM decreasing to less than 1/32 in combination with a test compound is indicated by A)	B (decreasing from 1/32 to 1/16 is indicated by B)
N[C@@H](Cc1cnc[nH]1)C(=O)N1CC(Oc2ccc3c(c2C(=O)O)O[B-](O)(O)CC3)C1 [Example 29, 8-[(1-L-histidylazetidin-3-yl)oxy]-4,4-dihydroxy-5-oxa-4-boranuidabicyclo[4.4.0]deca-l(6),7,9-triene-7-carboxylic acid disodium salt]		A (MIC of MEPM decreasing to less than 1/32 in combination with a test compound is indicated by A)	B (decreasing from 1/32 to 1/16 is indicated by B)
O=C(O)c1c(OC2CN(C(=O)c3cccc[n+]3[O-])C2)ccc2c1O[B-](O)(O)CC2 [Example 9, 4,4-dihydroxy-8-{[1-(1-oxido-2-pyridinylcarbonyl)azetidin-3-yl]oxy}-5-oxa-4-boranuidabicyclo[4.4.0]deca-l(6),7,9-triene-7-carboxylic acid disodium salt]	A (MIC of MEPM decreasing to less than 1/32 in combination with a test compound is indicated by A)	A (MIC of MEPM decreasing to less than 1/32 in combination with a test compound is indicated by A)	A (MIC of MEPM decreasing to less than 1/32 in combination with a test compound is indicated by A)
N[C@@H](C(=O)N1CC(Oc2ccc3c(c2C(=O)O)O[B-](O)(O)CC3)C1)c1ccccc1 [Example 10, 8-({1-[(2R)-2-amino-2-phenylacetyl]azetidin-3-yl}oxy)-4,4-dihydroxy-5-oxa-4-boranuidabicyclo[4.4.0]deca-l(6),7,9-triene-7-carboxylic acid disodium salt]	A (MIC of MEPM decreasing to less than 1/32 in combination with a test compound is indicated by A)	A (MIC of MEPM decreasing to less than 1/32 in combination with a test compound is indicated by A)	B (decreasing from 1/32 to 1/16 is indicated by B)
O=C(O)c1c(OC2CN(C(=O)c3ccc(O)c(O)c3)C2)ccc2c1OB(O)CC2 [Example 34, 7-{[1-(3,4-dihydroxybenzoyl)azetidin-3-yl]oxy}-2-hydroxy-3,4-dihydro-2H-1,2-benzoxaborinine-8-carboxylic acid]		A (MIC of MEPM decreasing to less than 1/32 in combination with a test compound is indicated by A)	B (decreasing from 1/32 to 1/16 is indicated by B)
O=C(O)c1c(OC2CN(C(=O)Cc3ccccc3)C2)ccc2c1O[B-](O)(O)CC2 [Example 20, 4,4-dihydroxy-8-{[1-(phenylacetyl)azetidin-3-yl]oxy}-5-oxa-4-boranuidabicyclo[4.4.0]deca-l(6),7,9-triene-7-carboxylic acid disodium salt]	A (MIC of MEPM decreasing to less than 1/32 in combination with a test compound is indicated by A)	B (decreasing from 1/32 to 1/16 is indicated by B)	B (decreasing from 1/32 to 1/16 is indicated by B)
O=C(O)c1c(OC2CN(C(=O)c3nc[nH]n3)C2)ccc2c1O[B-](O)(O)CC2 [Example 8, 4,4-dihydroxy-8-{[1-(1H-1,2,4-triazole-3-carbonyl)azetidin-3-yl]oxy}-5-oxa-4-boranuidabicyclo[4.4.0]deca-l(6),7,9-triene-7-carboxylic acid disodium salt]	A (MIC of MEPM decreasing to less than 1/32 in combination with a test compound is indicated by A)	A (MIC of MEPM decreasing to less than 1/32 in combination with a test compound is indicated by A)	B (decreasing from 1/32 to 1/16 is indicated by B)
CS(=O)(=O)N1CC(Oc2ccc3c(c2C(=O)O)OB(O)CC3)C1 [Example 3, 2-hydroxy-7-{[1-(methanesulfonyl)azetidin-3-yl]oxy}-3,4-dihydro-2H-1,2-benzoxaborinine-8-carboxylic]	A (MIC of MEPM decreasing to less than 1/32 in combination with a test compound is indicated by A)	A (MIC of MEPM decreasing to less than 1/32 in combination with a test compound is indicated by A)	B (decreasing from 1/32 to 1/16 is indicated by B)
CC(C)[C@@H](N)C(=O)N1CC(Oc2ccc3c(c2C(=O)O)O[B-](O)(O)CC3)C1 [Example 28, 4,4-dihydroxy-8-[(1-D-valylazetidin-3-yl)oxy]-5-oxa-4-boranuidabicyclo[4.4.0]deca-l(6),7,9-triene-7-carboxylic acid disodium salt]	A (MIC of MEPM decreasing to less than 1/32 in combination with a test compound is indicated by A)	A (MIC of MEPM decreasing to less than 1/32 in combination with a test compound is indicated by A)	B (decreasing from 1/32 to 1/16 is indicated by B)
O=C(O)c1c(OC2CN(C(=O)Cn3ccnc3)C2)ccc2c1O[B-](O)(O)CC2 [Example 22, 4,4-dihydroxy-8-({1-[(1H-imidazol-1-yl)acetyl]azetidin-3-yl}oxy)-5-oxa-4-boranuidabicyclo[4.4.0]deca-l(6),7,9-triene-7-carboxylic acid disodium salt]	A (MIC of MEPM decreasing to less than 1/32 in combination with a test compound is indicated by A)	A (MIC of MEPM decreasing to less than 1/32 in combination with a test compound is indicated by A)	B (decreasing from 1/32 to 1/16 is indicated by B)
O=C(O)c1c(OC2CN(C(=O)Cc3nn[nH]n3)C2)ccc2c1O[B-](O)(O)CC2 [Example 24, 4,4-dihydroxy-8-({1-[(2H-tetrazol-5-yl)acetyl]azetidin-3-yl}oxy)-5-oxa-4-boranuidabicyclo[4.4.0]deca-l(6),7,9-triene-7-carboxylic acid disodium salt]	A (MIC of MEPM decreasing to less than 1/32 in combination with a test compound is indicated by A)	A (MIC of MEPM decreasing to less than 1/32 in combination with a test compound is indicated by A)	B (decreasing from 1/32 to 1/16 is indicated by B)
O=C(O)c1c(OC2CN(C(=O)NO)C2)ccc2c1OB(O)CC2 [Example 35, 2-hydroxy-7-{[1-(hydroxycarbamoyl)azetidin-3-yl]oxy}-3,4-dihydro-2H-1,2-benzoxaborinine-8-carboxylic Acid]	A (MIC of MEPM decreasing to less than 1/32 in combination with a test compound is indicated by A)	A (MIC of MEPM decreasing to less than 1/32 in combination with a test compound is indicated by A)	B (decreasing from 1/32 to 1/16 is indicated by B)
N[C@@H](C(=O)N1CC(Oc2ccc3c(c2C(=O)O)O[B-](O)(O)CC3)C1)c1ccc(O)cc1 [Example 4, 8-({1-[(2R)-2-amino-2-(4-hydroxyphenyl)acetyl]azetidin-3-yl}oxy)-4,4-dihydroxy-5-oxa-4-boranuidabicyclo[4.4.0]deca-l(6),7,9-triene-7-carboxylic Acid Disodium Salt]	A (MIC of MEPM decreasing to less than 1/32 in combination with a test compound is indicated by A)	A (MIC of MEPM decreasing to less than 1/32 in combination with a test compound is indicated by A)	A (MIC of MEPM decreasing to less than 1/32 in combination with a test compound is indicated by A)
